Reference: PMC6274259, “New 3-Cyano-2-Substituted Pyridines Induce Apoptosis in MCF 7 Breast Cancer Cells” (Molecules, 2016)

Columns and labels:
[1] = tested on: MCF-7 human breast adenocarcinoma cell line; test: WST-1 cell viability assay, MCF-7; format: cell-based; conditions: WST-1, 24 h treatment, mean ± S.D of three independent experiments
Description: (§1) The synthesized compounds were screened for their cytotoxicity on five cancer cell lines, namely SK-OV-3, MCF-7, MDA-MB-231, HCT-116 and RKO, using a WST colorimetric assay. The assay principle is based upon the reduction of the tetrazolium salt WST-1 to formazan by cellular mitochondrial dehydrogenases present in viable cells. […] Among the latter compounds the benzohydrazide derivative 9a emerged with the lowest IC50 in this study against MCF-7 cells compared to 5-FU. […] Based on the fact that 9a had less cytotoxic effects on normal breast epithelial cells it was subjected to further studies.
(§2) The following cell lines were used for the screening stage, obtained from the American Type Culture Collection (ATCC, Manassas, VA, USA); SK-OV-3 (HTB-77), MCF-12A (ATCC CRL-10782), MDA-MB-231 (ATCC HTB-26), HCT-116 (CCL-247), RKO (CRL-2577) and sub-culturing of the above cell lines was conducted in 75 cm^2 flasks. The old culture media was removed and discarded after assessing the confluency of the cells and the cells were rinsed with 2–3 mL diluted trypsin (1×) (trypsin/EDTA solution consists of 0.025% trypsin and 0.01% EDTA in PBS), for about 5 minutes for complete detachment. The cells were observed under the inverted microscope until the cell layer is completely dispersed. 75 cm^2 flasks were prepared and 16 mL of DMEM media for SK-OV-3, MCF-7, MDA-MB-231, (DMEM 4500 mg glucose) and RPMI media for HCT-116 were added to each flask. The cells were aspirated gently and added to the flasks. DMEM 4500 mg/L high glucose with 10% FBS, 5% streptomycin and penicillin, RPMI 1640 (prepared by adding 5% heat-inactivated FCS and 2 mm glutamine) were used. DMEM was also used for MCF-12A cells with the addition of human epidermal growth factor 20 ng/mL, insulin 0.01 mg/mL and hydrocortisone 500 ng/mL.
(§3) The synthesized compounds were screened for their anti-proliferative activity using 5-FU (F6627-1G, Sigma-Aldrich, St. Louis, MO, USA) as reference compound. A concentration of 0.4% DMSO was used in all experiment after ensuring 100% viability of the cell lines with this concentration. A 25 mM stock concentration of all compounds was prepared for further studies and analysis.
(§4) Cells were trypsinized and placed in a 15 mL Falcon tube, the cells were centrifuged for 3 min at 1000 rpm. Trypsin is decanted using a sterile pipette and then the pellet is loosened by flicking the tube few times then 5–10 mL warm DMEM or RPMI were added to the Falcon tube and the pellet is resuspended. Cell count was done next by taking 10 μL of the suspension into the cell counting slide and read under 10× cells/mL. A cell stock of 50,000 cells/mL was prepared for the 96 wells. Cells (100 μL) were added to each well using a sterile pipette each time to ensure consistency. The experiment was planned ahead of time using excel sheet, 3–6 wells were reserved as blank media while 3–6 wells for vehicle (DMSO). The plate was incubated for 24 h for compound treatment step. DMEM media was used to prepare different dilutions of the compounds. The old DMEM media was removed from the wells using sterile pipette in the hood and the media was replaced with 100 μL media with each compound. The plate was incubated for 24 h. After 24 h incubation, WST-1 reagent (Sigma) was added to each well and then the plate was incubated for 1 h before measuring the absorbance using VICTOR™ Multilabel Plate Reader (Perkin Elmer, Beaconsfield, UK). The absorbance of the colored solution can be quantified by measuring at a certain wavelength (usually between 500–600 nm), in this experiment the first reading was conducted at 540 nm and the second reading at 690 nm for the reference wavelength. The percentage of cell viability was determined as the ratio of the absorbance of the sample vs the control. Three independent experiments were performed. […] 5-Florouracil (Sigma-Aldrich, F6627-1G) was used as reference standard.

[2] = tested on: HCT-116 human colon carcinoma cell line; test: WST-1 cell viability assay, HCT-116; format: cell-based; conditions: WST-1, 24 h treatment, mean ± S.D of three independent experiments
Description: as §1, §2, §3, §4

[3] = tested on: RKO human colon carcinoma cell line; test: WST-1 cell viability assay, RKO; format: cell-based; conditions: WST-1, 24 h treatment, mean ± S.D of three independent experiments
Description: as §1, §2, §3, §4

[4] = tested on: SK-OV-3 human ovarian carcinoma cell line; test: WST-1 cell viability assay, SK-OV-3; format: cell-based; conditions: WST-1, 24 h treatment, mean ± S.D of three independent experiments
Description: as §1, §2, §3, §4

[5] = tested on: MDA-MB-231 human breast adenocarcinoma cell line; test: WST-1 cell viability assay, MDA-MB-231; format: cell-based; conditions: WST-1, 24 h treatment, mean ± S.D of three independent experiments
Description: as §1, §2, §3, §4

[6] = Homo sapiens, Colon carcinoma cell

SMILES | IC50 ([1]; Homo sapiens, MCF7, 24 h) [µM] | IC50 ([2]; Homo sapiens, HCT-116) [µM] | IC50 [3, 6] [µM] | IC50 ([4]; Homo sapiens, SK-OV-3) [µM] | IC50 ([5]; Homo sapiens, MDA-MB-231) [µM] | melting point [°C] | IC50 [1] [µM] | IC50 [2] [µM] | IC50 [3] [µM] | IC50 [4] [µM] | IC50 [5] [µM]
CCCOc1nc(-c2ccc(OC)c(OC)c2)cc(-c2ccc(OC)c(OC)c2)c1C#N [Compound 4c, 4,6-bis(3,4-Dimethoxyphenyl)-2-propoxypyridine-3-carbonitrile] | 12.3 ± 0.77 | 10.1 ± 0.76 | 18.1 ± 1.03 | 22.1 ± 1.32 | 44.9 ± 1.74 | – | – | – | – | – | –
COc1ccc(-c2cc(-c3ccc(OC)c(OC)c3)c(C#N)c(OCC(=O)n3nc(SC)c(C#N)c3N)n2)cc1OC [Compound 13b, 2-{2-[5-Amino-4-cyano-3-(methylsulfanyl)-1H-pyrazol-1-yl]-2-oxoethoxy}-4,6-bis(3,4-dimethoxyphenyl)-pyridine-3-carbonitrile] | > 50 | 30.1 ± 0.76 | > 50 | > 50 | > 50 | 202 to 204 | – | – | – | – | –
COc1ccc(-c2cc(-c3ccc(OC)c(OC)c3)c(C#N)c(OCC(C)=O)n2)cc1OC [Compound 4d, 4,6-bis(3,4-Dimethoxyphenyl)-2-(2-oxopropoxy)pyridine-3-carbonitrile] | 20.3 ± 0.98 | 13.1 ± 0.84 | 17.4 ± 0.44 | 25.2 ± 0.76 | 35.8 ± 0.96 | 110 to 112 | – | – | – | – | –
COc1ccc(-c2cc(-c3ccc(OC)c(OC)c3)c(C#N)c(OCC(=O)NN=Cc3cc(OC)c(OC)c(OC)c3)n2)cc1OC [Compound 8c, 2-[3-Cyano-4,6-bis(3,4-dimethoxyphenyl)pyridin-2-yl]oxy-N'-(3,4,5-trimethoxybenzylidene)acetohydrazide] | 15.3 ± 0.74 | 25.9 ± 0.83 | 16.3 ± 0.37 | 12.1 ± 0.98 | 20.3 ± 1.06 | 232 to 234 | – | – | – | – | –
COc1ccc(C=NNC(=O)COc2nc(-c3ccc(OC)c(OC)c3)cc(-c3ccc(OC)c(OC)c3)c2C#N)cc1 [Compound 8a, 2-[3-Cyano-4,6-bis(3,4-dimethoxyphenyl)pyridin-2-yl]oxy-N'-(4-methoxybenzylidene)acetohydrazide] | 12 ± 0.96 | 28.8 ± 0.31 | 12.32 ± 0.02 | 14.1 ± 0.95 | 25.3 ± 1.24 | 163 to 164 | – | – | – | – | –
O=c1[nH]cc(F)c(=O)[nH]1 [Compound 5-FU, 5-Florouracil, reference compound] | – | – | – | – | – | – | 7.06 ± 0.91 | 12.2 ± 1.1 | 20.2 ± 1.16 | 32.2 ± 1.03 | 15.1 ± 0.94
COc1ccc(C(=O)NNC(=O)COc2nc(-c3ccc(OC)c(OC)c3)cc(-c3ccc(OC)c(OC)c3)c2C#N)cc1 [Compound 9b, N'-[2-(3-cyano-4,6-bis(3,4-dimethoxyphenyl)pyridin-2-yloxy)acetyl]-4-methoxybenzo hydrazide] | 10.2 ± 0.92 | 17.9 ± 0.74 | 9.95 ± 1.06 | 7.08 ± 0.16 | 19.3 ± 0.86 | 170 to 172 | – | – | – | – | –
COc1ccc(S(=O)(=O)NNC(=O)COc2nc(-c3ccc(OC)c(OC)c3)cc(-c3ccc(OC)c(OC)c3)c2C#N)cc1 [Compound 10b, N'-[2-(3-cyano-4,6-bis(3,4-dimethoxyphenyl)pyridin-2-yloxy)acetyl]-4-methoxybenzenesulfohydrazide] | 8.12 ± 0.47 | 16.1 ± 1.07 | 15.7 ± 0.86 | 9.17 ± 0.38 | 22.4 ± 1.71 | 190 to 192 | – | – | – | – | –
COc1ccc(-c2cc(-c3ccc(OC)c(OC)c3)c(C#N)c(OCC(=O)NNC(=S)SCCN3CCOCC3)n2)cc1OC [Compound 7c, 2-Morpholinoethyl-2-[2-(3-cyano-4,6-bis(3,4-dimethoxyphenyl)pyridin-2-yloxy)acetyl]hydrazinecarbo-dithioate] | 7.1 ± 0.44 | 26.9 ± 0.97 | 20.3 ± 0.76 | 5.12 ± 0.11 | 31.7 ± 0.89 | 158 to 160 | – | – | – | – | –
COc1ccc(C=NNC(=O)COc2nc(-c3ccc(OC)c(OC)c3)cc(-c3ccc(OC)c(OC)c3)c2C#N)cc1OC [Compound 8b, 2-[3-Cyano-4,6-bis(3,4-dimethoxyphenyl)pyridin-2-yl]oxy-N'-(3,4-dimethoxybenzylidene)acetohydrazide] | 9.31 ± 0.98 | 25.2 ± 0.89 | 14.2 ± 0.91 | 10.2 ± 0.92 | 32.3 ± 0.87 | 190 to 192 | – | – | – | – | –
COc1ccc(-c2cc(-c3ccc(OC)c(OC)c3)c(C#N)c(OCC(=O)n3nc(C)cc3C)n2)cc1OC [Compound 11, 4,6-Bis(3,4-dimethoxyphenyl)-2-(2-(3,5-dimethyl-1H-pyrazol-1-yl)-2-oxoethoxy)pyridine-3-carbonitrile] | > 50 | 33.9 ± 0.87 | > 50 | 26.2 ± 0.95 | > 50 | 161 to 163 | – | – | – | – | –
COc1ccc(-c2cc(-c3ccc(OC)c(OC)c3)c(C#N)c(OCc3nnc(S)o3)n2)cc1OC [Compound 14, 2-((5-Mercapto-1,3,4-oxadiazol-2-yl)methoxy)-4,6-bis(3,4-dimethoxyphenyl)pyridine-3-carbonitrile] | > 50 | > 50 | > 50 | 30.3 ± 1.12 | > 50 | – | – | – | – | – | –
CCOC(=O)COc1nc(-c2ccc(OC)c(OC)c2)cc(-c2ccc(OC)c(OC)c2)c1C#N [Compound 5, Ethyl 2-(3-Cyano-4,6-bis(3,4-dimethoxyphenyl)pyridin-2-yloxy)acetate] | 15.4 ± 0.94 | 14.9 ± 0.98 | 22.1 ± 0.97 | 10.2 ± 0.44 | 25.1 ± 0.87 | – | – | – | – | – | –
CCOc1nc(-c2ccc(OC)c(OC)c2)cc(-c2ccc(OC)c(OC)c2)c1C#N [Compound 4b, 2-Ethoxy-4,6-bis(3,4-dimethoxyphenyl)pyridine-3-carbonitrile] | 15.5 ± 0.46 | 26.2 ± 1.22 | 19.8 ± 0.37 | 18.2 ± 0.98 | 40 ± 1.36 | – | – | – | – | – | –
COc1ccc(-c2cc(-c3ccc(OC)c(OC)c3)c(C#N)c(OC)n2)cc1OC [Compound 4a, 2-Methoxy-4,6-bis(3,4-dimethoxyphenyl)pyridine-3-carbonitrile] | 9.08 ± 0.37 | 20.3 ± 0.85 | 13.2 ± 0.77 | 11.4 ± 0.72 | 32.1 ± 0.84 | – | – | – | – | – | –
